In US20250205205A1, “METHODS AND COMPOSITIONS FOR PREVENTING AND TREATING FIBROSIS AND IMPROVING FUNCTIONAL RECOVERY AFTER INJURY OR WITH AGING” (East Carolina University, priority 2022, published 2025):

Columns and labels:
sciatic nerve = test: Sciatic nerve function: compound action potentials (CAPs) on electrical stimulation after sciatic nerve injury and long-term treatment (FIG. 2); type: in vivo; details: sciatic nerve injury; daily treatments of 100 μl in saline; PPX 0.5 mg/kg, morphine 1 mg/kg, alone or combined; representative animal
Experimental: FIG. 2 depicts the in vitro effects of different long-term treatments on sciatic nerve function, as assessed by the response profiles of these nerves to electrical stimulation.
The CAP is an indicator of electrical activity in the nerve that is required for normal transmission of sensory information.
The effects in vitro of long-term treatments on sciatic nerve function were assessed by the response profiles of these nerves to electrical stimulation as shown in FIG. 2.

sciatic nerve injury = test: Pain withdrawal reflex latencies after unilateral sciatic nerve injury and long-term treatment (FIG. 3); type: in vivo; details: unilateral sciatic nerve injury; long-term treatment; PPX 0.5 mg/kg, morphine 1 mg/kg, alone or combined
Text: Filled circles show the reflex data of the injured side of the animal. […] Filled circles show the reflex data of the injured side of the animal. […] Filled circles show the reflex data of the injured side of the animal.

CN1CC[C@]23c4c5ccc(O)c4O[C@H]2[C@@H](O)C=C[C@H]3[C@H]1C5 [morphine]
compound action potential (CAP) on stimulation of the nerve on the injured side (sciatic nerve): failed to elicit a similarly strong CAP
pain withdrawal reflex latencies of the injured side versus pre-injury data (days −3 to −1) (sciatic nerve injury): did not lead to a recovery of withdrawal latencies to pre-injury data
